In test [1] the target is T1, PS:C4BP complex (Homo sapiens, UniProt P04003+P20851).
T1 construct: Purified human C4BP was obtained from 5 liters (l) of human citrated plasma; from tissue; host or cells: human citrated plasma (C4BP); protein S by the method of Schwarz et al
T1 sequence (P04003 49-597): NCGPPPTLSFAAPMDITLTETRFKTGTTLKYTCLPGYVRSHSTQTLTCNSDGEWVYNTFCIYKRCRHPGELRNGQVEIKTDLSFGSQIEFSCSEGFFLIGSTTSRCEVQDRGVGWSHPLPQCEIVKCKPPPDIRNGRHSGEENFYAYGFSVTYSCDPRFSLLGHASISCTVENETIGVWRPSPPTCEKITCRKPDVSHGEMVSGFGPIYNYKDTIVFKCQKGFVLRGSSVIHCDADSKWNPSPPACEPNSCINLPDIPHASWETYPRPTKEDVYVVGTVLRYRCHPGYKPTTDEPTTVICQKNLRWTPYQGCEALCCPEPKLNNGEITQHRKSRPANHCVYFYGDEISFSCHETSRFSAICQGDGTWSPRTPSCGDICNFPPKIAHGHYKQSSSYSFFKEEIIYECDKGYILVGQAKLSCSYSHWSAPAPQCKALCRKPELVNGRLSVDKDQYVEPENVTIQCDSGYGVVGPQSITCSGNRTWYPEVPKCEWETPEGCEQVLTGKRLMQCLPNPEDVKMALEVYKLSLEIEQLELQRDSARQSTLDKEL
T1 sequence (P20851 18-252): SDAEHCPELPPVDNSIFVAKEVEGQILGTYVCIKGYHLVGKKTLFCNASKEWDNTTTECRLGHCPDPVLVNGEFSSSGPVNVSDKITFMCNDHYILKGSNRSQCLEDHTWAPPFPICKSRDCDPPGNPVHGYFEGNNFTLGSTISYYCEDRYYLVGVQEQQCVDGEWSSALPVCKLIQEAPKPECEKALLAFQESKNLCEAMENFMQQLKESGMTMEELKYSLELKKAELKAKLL
Briefly: Peptide inhibition of b-C4BP binding to PS-coated wells. The settings on record: b-C4BP 1 μg/ml, peptide 0-500 μM. How it is done: An alternative approach was used to test the ability of the peptides, PSP-loop, PSP-424K and PSP-428K, in comparison with that seen with the PSP-12 peptide, in inhibiting the binding of C4BP to PS. For this assay, the microtiter wells were coated with purified PS diluted to a concentration of 10 μg/ml in carbonate-coating buffer as described above. The wells were maintained to allow the PS to bind to the well walls. After the maintenance period, the wells were blocked also as described above. The selected PSP peptides were separately admixed at various concentrations ranging from 0-500 μM with biotinylated-C4BP (b-C4BP) at a concentration of 1 μg/ml. The admixtures were maintained on a fluid phase plate for 2 hours at room temperature to form peptide-C4BP complexes.
Fifty μl of the complexed admixtures were separately admixed to the prepared […] and maintained for 1 hour at room temperature. Thereafter, the plate was washed and processed for developing as described above.

The target in test [2] is T1, PS:C4BP complex. As to the kind of experiment: Fluid-phase peptide inhibition of b-PS binding to C4BP, detected on anti-C4BP polyclonal antibody-coated plates. How it is done:
(§1) An alternative approach was used to test the ability of the peptides, PSP-loop, PSP-424K and PSP-428K, in comparison with that seen with the PSP-12 peptide, in inhibiting the binding of PS to C4BP, the result of which was detected on polyclonal antibody-coated plates. For this assay, C4BP, biotinylated-PS (b-PS) and PSP peptides were admixed together at the respective concentrations of 3 μg/ml, 0.6 μg/ml and at a range of 0-500 μM (V:V:V). The admixtures were maintained for 2 hours at room temperature on a fluid phase plate to allow the binding and/or inhibition thereof of PS to C4BP by the PS-derived peptides. After the maintenance period, 50 μl of the admixture were separately admixed to wells previously coated with 10 μg/ml of anti-C4BP IgG polyclonal antibody. The admixtures were maintained for 1 hour at room temperature to allow for the binding of C4BP to C4BP-antibody-coated plates. The binding of biotinylated complexes to the antibody-coated plates was detected as described in Example 5Aii.

Test [3] concerns the target T1, PS:C4BP complex. As to the kind of experiment: Fluid-phase peptide inhibition of PS binding to b-C4BP, detected on MAb S-7-coated plates. The following applies: b-C4BP 0.5 μg/ml, PS 1.0 μg/ml. How it is done:
as §1, with “monoclonal” for “polyclonal”, “biotinylated-C4BP (b-C4BP), PS” for “C4BP, biotinylated-PS (b-PS)”, “0.5” for “3”, “1.0” for “0.6”, “MAb S-7 (ATCC No. HB 80819).” for “anti-C4BP IgG polyclonal antibody.”, “MAb S-7-antibody-coated” for “C4BP-antibody-coated”

Test [4] deals with T2, interaction of protein S with C4BP (Homo sapiens, UniProt P04003+P20851).
T2 sequence (P04003 49-597): T1 sequence (P04003 49-597)
T2 sequence (P20851 18-252): T1 sequence (P20851 18-252)
The following applies: in vitro; Walker et al., Weinstein et al.; cited from earlier work.

The target of test [5] is T1, PS:C4BP complex. Briefly: Peptide Inhibition Assay: b-PS binding to C4BP in solid-phase. How it is done: Each of the peptides produced as described in Example 1 and listed in Table 1 was analyzed for its ability to inhibit the binding of native protein S in liquid-phase to C4BP in solid-phase.
Microtiter wells of a 96 well plate were coated with 50 μl of 10 μg/ml purified C4BP in carbonate buffer (0.02M Na2 CO3, pH 9.0, 0.02% Na-Azide). After blocking with 10% BSA in TBS, 50 μl of different concentrations of peptides diluted in washing buffer (TBS, 0.2% BSA, 5mM CaCl, 0.02% Tween 20) were separately admixed to C4BP-coated wells. After 2 hours at room temperature, 50 μl of a solution of biotinylated protein S, were admixed to each well to form a second binding admixture having a final concentration of 2 μg/ml. The plate was agitated and the samples Were incubated 1 hour at room temperature. The samples were discarded and the wells were washed 3 times with washing buffer. […] The resulting optical densities of the reaction solutions were read as described before in Example 2C. […]
where I is expressed as a percent; and where 100%=delta/min of the amount of b-PS which specifically bound to C4BP-coated wells in the absence of any competing PS-peptide; and where deltaT =the change in absorbance (405 nm) in the presence of competing PS-peptide; and where deltaC =the change in absorbance (405 nm) in the absence of competing PS-peptide.

In the next test the target is T3, C4BP (Homo sapiens, UniProt P04003+P20851).
T3 sequence (P04003 49-597): T1 sequence (P04003 49-597)
T3 sequence (P20851 18-252): T1 sequence (P20851 18-252)
The settings on record: read-out: dissociation constant (Kd) for the protein S - C4BP interaction, cited from earlier work.

As a reminder, the IC90 is the point of the concentration-response curve where the effect stands at 90%. The low end stands for greater potency, the high end for weaker potency. The term IC50 denotes the concentration needed to halve the response being measured. Higher therefore signals weaker potency in that assay. As a reminder, the Kd is the concentration at which binding is half-saturated.

Like-named read-outs stand apart in the source and are kept apart here. Bridge positions count the residues as written; N and C are the ends. Peptide text beside a SMILES is read from it.

For `CC[C@H](C)[C@H](NC(=O)CNC(=O)[C@@H](N)CO)C(=O)N[C@@H](CCCCN)C(=O)N[C@@H](CCCCN)C(=O)N[C@H](C(=O)N[C@H](C(=O)N[C@@H](CCC(N)=O)C(=O)N[C@@H](CCC(=O)O)C(=O)N[C@@H](CCCCN)C(=O)N[C@@H](CCC(N)=O)C(=O)N[C@@H](CC(N)=O)C(=O)N[C@@H](CCCCN)C(=O)N[C@@H](CS)C(N)=O)[C@@H](C)CC)[C@@H](C)CC` [PSP-424K, SGIKKIIQEKQNKC] (H-SGIKKIIQEKQNKC-NH2; N-terminus assumed), the IC90 on PS:C4BP complex [1] and on PS:C4BP complex [3] was ~250 µM each time. Also, the “inhibition of binding of b-PS to C4BP compared with PSP-loop” value at PS:C4BP complex [2] is given as “inhibitory but with lower effectiveness”.

For the molecule `CC[C@H](C)[C@H](NC(=O)[C@H](C)NC(=O)[C@H](CCC(=O)O)NC(=O)[C@H](CC(=O)O)NC(=O)[C@H](CC(C)C)NC(=O)[C@H](CC(=O)O)NC(=O)[C@H](CC(C)C)NC(=O)[C@H](CCC(N)=O)NC(=O)[C@@H](NC(=O)CN)C(C)C)C(N)=O` [PSP-605, GVQLDLDEAI] (H-GVQLDLDEAI-NH2; N-terminus assumed), in test [4], the “inhibition of the interaction of protein S with C4BP” value was “inhibits the interaction of protein S with C4BP in vitro”.

`CC[C@H](C)[C@@H]1NC(=O)[C@H](CO)NC(=O)[C@H](C)NC(=O)CNC(=O)[C@H](CCC(N)=O)NC(=O)[C@H](CCCCN)NC(=O)[C@H](CCSC)NC(=O)[C@H](CC(C)C)NC(=O)[C@H](CC(N)=O)NC(=O)[C@H](Cc2c[nH]c3ccccc23)NC(=O)[C@H](CO)NC(=O)[C@H](CCCNC(=N)N)NC(=O)[C@H]([C@@H](C)CC)NC(=O)[C@@H](N)CSSC[C@@H](C(N)=O)NC(=O)[C@H](Cc2c[nH]cn2)NC(=O)[C@H](CCCCN)NC(=O)[C@H](CC(N)=O)NC(=O)[C@H](CCC(N)=O)NC(=O)[C@H](CCCCN)NC(=O)[C@H](CCC(=O)O)NC(=O)[C@H](CCC(N)=O)NC(=O)[C@H]([C@@H](C)CC)NC(=O)[C@H]([C@@H](C)CC)NC(=O)[C@H](CCC(=O)O)NC(=O)[C@H](CCCCN)NC1=O` [PSP-loop] (H-CIRSWNLMKQGASIKEIIQEKQNKHC-NH2; disulfide 1-26 (inferred); N-terminus and C-terminus assumed): the “peptide concentration that completely inhibits the binding of PS to C4BP” value on PS:C4BP complex [5] (subsequent experiments) is on record as “approximately 250 μM”. Further, the half-inhibitory concentration (IC50) on PS:C4BP complex [2] (C4BP 3 μg/ml, b-PS 0.6 μg/ml) was ~40 µM.

With CPEGYRYNLKSKSC [PSP-7], the “inhibition of PS:C4BP complex formation relative to PS-peptides from other regions of protein S” value with PS:C4BP complex [5] is “strong inhibition”.

Take “Protein S: vitamin K-dependent single chain plasma glycoprotein of 75,000 daltons, cofactor to activated protein C”: the Kd with C4BP (in the presence of Ca++) is 0.0006 µM; with C4BP (in the presence of EDTA), 0.001 µM.

These data come from patent US5321123A, “Protein S polypeptides and anti-peptide antibodies that inhibit protein S binding to C4B binding protein, diagnostic systems and therapeutic methods” (The Scripps Research Institute, priority 1992, dated 1994).
